Source: US20100215635A1, “SMALL MOLECULES TO INDUCE WEIGHT LOSS OR TO REDUCE WEIGHT GAIN” (priority 2009, published 2010)

Experiments:
Type in all cases: in vivo, mouse
ob/ob mice [1] = assay: Effect on body weight of ob/ob obese mice; conditions: ob/ob mice (Example 3, Table 4), 4.5 mg/kg s.c. once daily for 14 days; day 20
ob/ob mice [2] = assay: Effect on body weight of ob/ob obese mice; conditions: for Body weight gained: 4.5 mg/kg s.c. daily for 14 days; for Body weight: 4.5 mg/kg s.c. once daily for 14 days
Excerpt: Leptin-deficient ob/ob obese diabetic inbred, adult female mice, weighing 32-36 g at arrival, specified pathogen free (SPF) hygienic category from Charles River VRF1, were used for these experiments. The ob/ob obese mouse is an extensively used animal model for the study of non-insulin-dependent-diabetes mellitus (NIDDM). The mutation was propagated in the C57BL/6J (BL/6) inbred strain. Homozygous obese (ob/ob) animals developed hyperglycemia, hyperinsulinemia and obesity. In these animals gluconeogenesis is enhanced despite their hyperinsulinemic state. The animals were kept in macrolon cages at 22-24° C. and 50-60% humidity, with lighting regimen of 12/12 h light dark. The animals had free access tap water and were fed with a sterilized standard diet (Charles River VRF1, autoclavable). The animals were cared for according to the “Guiding Principles for the Care and Use for Animals” based upon the Helsinki declaration. The ob/ob mice gained weight rapidly and develop a marked obesity by 5-6 weeks of age. […] When arrived they were 5 weeks old (when experiment was performed with CC1) or 4.5 weeks old (when experiment was performed with CC3 and CC19); the treatments started 8 days later in the experiment performed with CC1 and 10 days later in the experiment performed with CC3 and CC19. Experimental groups selected from C57/BL or ob/ob mice were injected subcutaneously at regular intervals once daily for 14 days with CCompound1, CCompound3, or CCompound19 at the dose of 4.5-mg per kg. Other groups selected from C57/BL or ob/ob mice remained untreated during the entire length of the experiment. Body weight was measured every day or every second day for 14 days and then on days 21, 40, and 48. All untreated and treated groups included 5 animals except the CCompound1-treated group of ob/ob mice that included 9 animals. The data are expressed as the average ±standard error of mean. On day 1, body weight was measured first followed by the treatment in the CCompound1-treated group. The treatments were repeated for 14 days with no additional treatment performed during the rest of the observation period. […] In contrast, CCompound1 treated mice gained 2.6-g body weight between day 1 and 14, and also only 2.6-g between day 14 and 48. On day 14 and the following days the differences in body weight were statistically highly significant (P<0.001). It is particularly important that between day 14 and 48, weight gain in the treated group was minimal compared to the control group despite discontinuation of the treatment. […] This feature allows intermittent use of CCompound1 and analogs for weight control. On day 1, first body weight was measured, followed by the treatments with CCompound3 (5 mice) or CCompound19 (5 mice) as indicated in TABLE 4. The treatments were repeated for 14 days with no additional treatment performed during the rest of the observation period. One group of animals (5 mice) served as untreated controls. […] Mice treated with CCompound3 gained 3.3-g body weight between day 1 and 15, and 6.8-g between day 15 and 48. Mice treated with CCompound19 gained 2.6-g body weight between day 1 and 15, and 4.2-g between day 15 and 48. […] Again, both CCompound3 and particularly CCompound19 were effective reducing weight between day 15 and 48 despite discontinuation of the treatment after the last treatment on day 15.

C57/BL mice = assay: Effect on body weight of C57/BL (non-obese control) mice; conditions: for Body weight gained: 4.5 mg/kg s.c. daily for 14 days; for Body weight: 4.5 mg/kg s.c. once daily for 14 days
Method: C57BL6 male mice (10-11 weeks old) were used as non-obese controls of ob/ob mice. These animals were kept under specified pathogen free (SPF) condition and they were fed a standard sterilized diet (Charles River) ad libitum. Experimental groups selected from C57/BL or ob/ob mice were injected subcutaneously at regular intervals once daily for 14 days with CCompound1, CCompound3, or CCompound19 at the dose of 4.5-mg per kg. Other groups selected from C57/BL or ob/ob mice remained untreated during the entire length of the experiment. Body weight was measured every day or every second day for 14 days and then on days 21, 40, and 48. All untreated and treated groups included 5 animals except the CCompound1-treated group of ob/ob mice that included 9 animals. The data are expressed as the average ±standard error of mean. This mouse strain served as the control to the ob/ob mice. On day 1, body weight was measured first followed by the treatment in the CCompound1-treated group. The treatments were repeated for 14 days. […] CCompound1 treated mice also gained 2-g body weight between day 1 and 14, and 4.2-g between day 14 and 48. This small difference between the two groups was not statistically significant. In a follow up experiment using the same treatment regimen, C57/BL mice treated with 6-mg per kg dose of CCompound1 gained 5.6-g weight gain over a 40 days period compared to 5.8-g weight gain in the control group over the same time period. Again, this small difference was not statistically significant.

[3] = ob/ob mice (Example 3), then no treatment, between day 15 and 48 (untreated 11.9 g)
[4] = ob/ob mice (Example 3), between day 1 and 15 (untreated 4.8 g)
[5] = ob/ob mice (Example 3, Table 4), day 1 (before first treatment)
[6] = ob/ob mice (Example 3, Table 4), day 5
[7] = ob/ob mice (Example 3, Table 4), day 10
[8] = ob/ob mice (Example 3, Table 4), day 15
[9] = ob/ob mice (Example 3, Table 4), day 40, P < 0.001 vs no treatment
[10] = ob/ob mice (Example 3, Table 4), day 48, P < 0.001 vs no treatment

C[N+](C)(C)CCC=C1c2ccccc2Sc2ccccc21.[I-] [CCcompound19, N,N,N-trimethyl-3-(9H-thioxanthen-9-ylidene)-propane-1-aminium iodide]
Body weight (ob/ob mice [1]): 42.1 ± 0.9 g | Body weight gained (ob/ob mice [2]; [3]): 4.2 g | Body weight gained (ob/ob mice [2]; [4]): 2.6 g | Body weight (ob/ob mice [2]; [5]): 38.1 ± 0.6 g | Body weight (ob/ob mice [2]; [6]): 38.4 ± 0.7 g | Body weight (ob/ob mice [2]; [7]): 39.7 ± 0.4 g | Body weight (ob/ob mice [2]; [8]): 40.7 ± 0.5 g | Body weight (ob/ob mice [2]; [9]): 43.8 ± 1.3 g | Body weight (ob/ob mice [2]; [10]): 44.9 ± 0.8 g

CC[N+](C)(CC)CCOCc1ccc2sc3ccccc3c(=O)c2c1 [CCcompound3]
Body weight (ob/ob mice [1]): 42.2 ± 0.5 g | Body weight gained (ob/ob mice [2]; [3]): 6.8 g | Body weight gained (ob/ob mice [2]; [4]): 3.3 g | Body weight (ob/ob mice [2]; [5]): 37.0 ± 0.6 g | Body weight (ob/ob mice [2]; [6]): 37.5 ± 1.2 g | Body weight (ob/ob mice [2]; [7]): 38.5 ± 0.9 g | Body weight (ob/ob mice [2]; [8]): 40.3 ± 1.1 g | Body weight (ob/ob mice [2]; [9]): 45.9 ± 0.8 g | Body weight (ob/ob mice [2]; [10]): 47.1 ± 1.0 g

Cc1c(OCC(O)C[N+](C)(C)C)cc2c(=O)c3ccccc3sc2c1C.[Cl-] (centres unmarked) [CCcompound1, [3-(3,4-Dimethyl-9-oxo-9H-thioxanthen-2-yloxy)-2-hydroxypropyl]trimethyl-ammonium chloride]
Body weight gained (C57/BL mice; between day 1 and 14 (untreated 2 g)): 2 g | Body weight gained (C57/BL mice; between day 14 and 48 (untreated 5.2 g; difference not statistically significant)): 4.2 g | Body weight (C57/BL mice; day 1 (before first treatment)): 28.0 ± 0.7 g | Body weight (C57/BL mice; day 2): 27.7 ± 0.6 g | Body weight (C57/BL mice; day 4): 28.2 ± 0.7 g | Body weight (C57/BL mice; day 6): 28.7 ± 0.5 g | Body weight (C57/BL mice; day 8): 28.8 ± 0.4 g | Body weight (C57/BL mice; day 10): 29.6 ± 0.7 g | Body weight (C57/BL mice; day 12): 30.3 ± 1.4 g | Body weight (C57/BL mice; day 14): 30.0 ± 0.9 g | Body weight (C57/BL mice; day 21): 30.7 ± 1.1 g | Body weight (C57/BL mice; day 40): 33.9 ± 0.9 g | Body weight (C57/BL mice; day 48): 34.2 ± 0.8 g | Effect on body weight in normal mice (C57/BL mice; dose range 4.5-6 mg per kg): no effects on the body weight | Weight gain (C57/BL mice; follow up experiment, 6 mg per kg, same regimen, over a 40 days period (control 5.8 g; not statistically significant)): 5.6 g | Body weight gained (ob/ob mice [2]; ob/ob mice, then no treatment, between day 14 and 48 (untreated 11.6 g)): 2.6 g | Body weight gained (ob/ob mice [2]; ob/ob mice, between day 1 and 14 (untreated 4.4 g)): 2.6 g | Body weight (ob/ob mice [2]; ob/ob mice, day 1 (before first treatment)): 40.4 ± 0.7 g | Body weight (ob/ob mice [2]; ob/ob mice, day 2): 40.4 ± 0.6 g | Body weight (ob/ob mice [2]; ob/ob mice, day 3): 40.6 ± 0.6 g | Body weight (ob/ob mice [2]; ob/ob mice, day 4): 40.8 ± 0.6 g | Body weight (ob/ob mice [2]; ob/ob mice, day 5): 40.7 ± 0.6 g | Body weight (ob/ob mice [2]; ob/ob mice, day 6): 41.0 ± 0.6 g | Body weight (ob/ob mice [2]; ob/ob mice, day 7): 41.5 ± 0.6 g | Body weight (ob/ob mice [2]; ob/ob mice, day 8): 41.9 ± 0.7 g | Body weight (ob/ob mice [2]; ob/ob mice, day 9): 42.1 ± 0.7 g | Body weight (ob/ob mice [2]; ob/ob mice, day 10): 42.4 ± 0.7 g | Body weight (ob/ob mice [2]; ob/ob mice, day 11): 42.6 ± 0.6 g | Body weight (ob/ob mice [2]; ob/ob mice, day 12): 42.7 ± 0.6 g | Body weight (ob/ob mice [2]; ob/ob mice, day 13): 42.9 ± 0.6 g | Body weight (ob/ob mice [2]; ob/ob mice, day 14, P < 0.001 vs no treatment): 43.0 ± 0.7 g | Body weight (ob/ob mice [2]; ob/ob mice, day 19, P < 0.001 vs no treatment): 44.3 ± 0.9 g | Body weight (ob/ob mice [2]; ob/ob mice, day 21, P < 0.001 vs no treatment): 44.5 ± 0.8 g | Body weight (ob/ob mice [2]; ob/ob mice, day 45, P < 0.001 vs no treatment): 45.6 ± 1.1 g | Body weight (ob/ob mice [2]; ob/ob mice, day 48, P < 0.001 vs no treatment): 45.6 ± 1.1 g
